Measurements published in publication PMC13249053, “Mechanism of auranofin toxicity: Inhibition of tetrahydrobiopterin metabolism” (Toxicology and applied pharmacology, 2025).
“And” between values parts separate entries of the source, which are not always exact repeats. Identical values can stand only once. “Also recorded” adds a separate entry of the source.

Columns and labels:
[1] = target: T1, sepiapterin reductase (SPR) (Homo sapiens, UniProt P35270); experiment: SPR enzyme activity in HaCaT cell lysates (BH2 formation from sepiapterin, HPLC); type: biochemical; details: BH2 formation from sepiapterin by HPLC, read-out: IC50, inhibition of SPR in HaCaT cell lysates
T1 construct: endogenous in cells; host or cells: HaCaT, Jurkat, BeWo, SKNMC, CX-1
T1 sequence (P35270 whole entry): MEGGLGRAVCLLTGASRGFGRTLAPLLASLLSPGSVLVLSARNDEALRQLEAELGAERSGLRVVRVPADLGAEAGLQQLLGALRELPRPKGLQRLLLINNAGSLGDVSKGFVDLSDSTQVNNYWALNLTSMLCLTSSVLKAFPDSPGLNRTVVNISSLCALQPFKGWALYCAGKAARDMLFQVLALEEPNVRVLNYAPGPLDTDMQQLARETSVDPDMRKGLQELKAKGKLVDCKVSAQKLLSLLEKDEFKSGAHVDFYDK
Method: (§1) The growth medium was then removed and the cells incubated with growth medium containing 100 μM sepiapterin. […] BH2 and BH4 were then analyzed on a Jasco high-performance liquid chromatography system (Easton, MD) fitted with a Maxsil-10 C18 column (250 × 4 mm; Phenomenex, Torrance, CA). […] Cell viability following drug treatments was greater than 95 %.
Fig. 4. Effects of auranofin on sepiapterin reductase (SPR) enzyme activity in HaCaT lysates. Lysates were assayed for SPR enzyme activity in control reaction mixes or reaction mixes containing increasing concentrations of auranofin (left panel). SPR activity was determined by decreases in BH2 formation from sepiapterin as measured by HPLC (right panel).

DHFR = target: T2, DHFR (Rattus norvegicus, UniProt Q920D2); experiment: Cellular DHFR activity: BH4 formation from BH2, PC12 cells; type: cell-based; details: PC12 (rat pheochromocytoma)
T2 construct: endogenous in cells; host or cells: PC12
T2 sequence (Q920D2 1-187): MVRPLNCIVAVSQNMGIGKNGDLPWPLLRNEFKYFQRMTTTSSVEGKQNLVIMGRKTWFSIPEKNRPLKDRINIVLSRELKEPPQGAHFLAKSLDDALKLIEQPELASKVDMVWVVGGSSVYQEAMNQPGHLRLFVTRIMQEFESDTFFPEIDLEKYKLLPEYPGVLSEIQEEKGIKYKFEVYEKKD
Method: as §1

[2] = tested on: catecholamine and monoamine production in PC12 cells; experiment: Catecholamine and monoamine production in PC12 cells (HPLC, electrochemical detection); type: cell-based, rat; details: auranofin 0.04–2.5 μM
Method: Catecholamine and monoamine production in PC12 cells were assayed as previously described ([Yang et al., 2015]). Briefly, cells grown in 10-cm culture dishes were treated in the absence or presence of auranofin (0.04–2.5 μM) in 10 ml of growth medium without FBS. After 24 h, the cells were removed from the plates, washed with phosphate-buffered saline, and centrifuged (1500 g, 10 min). Cell pellets (~8 × 10^6 cells) were resuspended in 1 ml of 0.1 N perchloric acid containing 200 μM EDTA and 350 μM sodium metabisulfite and sonicated on ice. Ly-sates were centrifuged (20,000 g, 10 min) and clear supernatants filtered using 0.22-μm filters. Extracts were then analyzed for neurotransmitters and their metabolites using a Waters 2695 high-performance liquid chromatography system (Waters Corp., Milford, MA) fitted with a cation exchange column (MD-150 3.2 × […] column; ESA Biosciences, Inc., Chelmsford, MA) using an isocratic mobile phase (MD-TM mobile phase; ESA Biosciences Inc.) containing 2.2 mM NaCl pumped at constant flow rate of 0.5 ml/min. Compounds were quantified by electrochemical detection using a glassy carbon working electrode (2 mm in diameter) with an in situ silver reference electrode (flow cell, 2 mm GC WE, ISAAC; Waters Corp.) ([Yochum et al., 2014]).
Fig. 9. […] Cells were analyzed for BH2 and BH4 as described in the Materials and Methods. […]

SPR = SPR (Homo sapiens, UniProt P35270); experiment: Sepiapterin reduction by recombinant SPR (absorbance at 420 nm); type: biochemical; set-up: made in house
SPR, sequence (P35270 whole entry): as the sequence (P35270 whole entry) above
Method: Sepiapterin reductase activity was assayed by measuring decreases in sepiapterin absorbance at 420 nm as described by Kato ([Kato, 1971]) with some modifications. Briefly, standard reaction mixes contained 100 mM potassium phosphate buffer, pH 7.0, 100 μM NADPH, 50 μM sepiapterin and 1 μg of enzyme protein in a final volume of 0.2 ml. Changes in absorbance of sepiapterin were monitored using a Spectramax M5 microplate reader (Molecular Devices, Sunnyvale, CA). […] Chemical redox cycling by SPR was assayed by measuring the formation of superoxide anion in the presence of menadione as previously described ([Yang et al., 2013]). […] Superoxide anion was measured spectrophotometrically by the reduction of acetylated cytochrome c at 550 nm. DHFR activity was measured as previously described ([Whitsett et al., 2013]) with some modifications. […] Enzyme activity was monitored by decreases in absorbance of NADPH at 340 nm using a microplate reader. […]
Fig. 5. […] SPR was measured in enzyme assays by decreases in sepiapterin absorbance at 420 nm as described in the Materials and Methods. DHFR activity in enzyme assays was measured by decreases in absorbance of NADPH at 340 nm. […] Redox cycling was measured spectrophotometrically by the reduction of acetylated cytochrome c at 550 nm during the formation of superoxide anion in enzyme assays in the presence of 100 μM menadione.

cells = experiment: Cell viability (alamarBlue) following drug treatments; details: cells pretreated with auranofin and/or methotrexate for 2 h, then sepiapterin 3 h

Question: What does the source list for `CC[PH](CC)(CC)[Au][S][C@@H]1O[C@H](COC(C)=O)[C@@H](OC(C)=O)[C@H](OC(C)=O)[C@H]1OC(C)=O` [auranofin, 2,3,4,6-tetra-O-acetyl-1-thio-β-D-glucopyranosato-S-triethyl phosphine gold]?
Answer: IC50 [1]: 1800 nM; IC50 (DHFR): 870 ± 90 nM; production of monoamines (serotonin, dopamine) and their metabolites (5HIAA, DOPAC, HVA) [2]: concentration-dependent inhibition; also recorded: significantly reduced; recombinant SPR activity versus control (SPR; 10 μM auranofin, n = 3, P < 0.05): Significantly different; IC50 (SPR; 50 μM sepiapterin, 100 μM NADPH, pH 7.0, auranofin added 10 min before, read-out: IC50, inhibition of sepiapterin reduction by recombinant SPR): 1500 nM and 1530 nM; cell viability following drug treatments (cells): greater than 95%
